US20240287080A1 (IDEAYA Biosciences Inc., priority 2021, published 2024)

These compounds were tested against T1, Pol theta (1-899) (Homo sapiens, UniProt O75417) (assay: Pol theta ATPase activity, NADH oxidation-coupled enzymatic assay (ATPase NADH coupling: Standard Screening: hPolQ)). Conditions: Pol theta (1-899) 5 nM, NADH oxidation-coupled ATPase assay; compounds of Table 3.
T1 construct: Pol theta (1-899) (5 nM) in assay buffer
Type: biochemical
Outline: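 Rates of ATP hydrolysis taken from 60-min A340 traces of NADH oxidation via PK/LDH coupling, then fit four-parameter for IC50, Hill slope and max inhibition. Enzyme (5 nM, 1-899) and compounds preincubated 15 min before ATP 100 μM and 50-thymine ssDNA 300 nM (stock, equal volume added).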

T1 sequence (O75417 1-899): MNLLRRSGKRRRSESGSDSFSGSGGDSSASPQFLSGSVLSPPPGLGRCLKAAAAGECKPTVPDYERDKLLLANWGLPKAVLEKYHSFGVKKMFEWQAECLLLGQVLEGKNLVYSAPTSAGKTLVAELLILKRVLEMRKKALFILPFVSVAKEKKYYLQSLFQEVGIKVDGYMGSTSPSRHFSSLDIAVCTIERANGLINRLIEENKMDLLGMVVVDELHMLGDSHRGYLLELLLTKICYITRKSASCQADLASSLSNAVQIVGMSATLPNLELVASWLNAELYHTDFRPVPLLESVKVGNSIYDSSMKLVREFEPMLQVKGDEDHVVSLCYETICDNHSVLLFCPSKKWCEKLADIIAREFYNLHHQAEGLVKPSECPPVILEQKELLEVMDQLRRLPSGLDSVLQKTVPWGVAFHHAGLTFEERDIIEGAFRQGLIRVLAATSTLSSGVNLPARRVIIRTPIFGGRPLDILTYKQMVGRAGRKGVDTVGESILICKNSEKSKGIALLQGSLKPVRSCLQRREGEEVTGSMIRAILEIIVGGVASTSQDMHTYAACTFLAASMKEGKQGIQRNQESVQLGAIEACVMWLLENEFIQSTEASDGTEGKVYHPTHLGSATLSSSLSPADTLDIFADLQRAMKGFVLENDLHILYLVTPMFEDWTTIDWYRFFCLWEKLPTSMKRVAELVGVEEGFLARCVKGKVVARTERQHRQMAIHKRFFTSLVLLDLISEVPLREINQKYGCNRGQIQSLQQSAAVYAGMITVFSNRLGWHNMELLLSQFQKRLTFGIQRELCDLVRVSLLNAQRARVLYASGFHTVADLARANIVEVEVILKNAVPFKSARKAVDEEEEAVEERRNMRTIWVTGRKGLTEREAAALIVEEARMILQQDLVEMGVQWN

Compound	IC50
COc1nnc(NC(=O)c2ccc(N)cc2-c2cc(Cl)ncc2OC)s1 [Example 286, 4-amino-2-(2-chloro-5-methoxypyridin-4-yl)-N-(5-methoxy-1,3,4-thiadiazol-2-yl)benzamide]	≤ 200 nM
COc1nnc(NC(=O)c2ccnc(C#N)c2-c2cc(Cl)ncc2OC)s1 [Example 289, 2′-chloro-2-cyano-5′-methoxy-N-(5-methoxy-1,3,4-thiadiazol-2-yl)-[3,4′-bipyridine]-4-carboxamide]	1000 to 10000 nM
COc1cnc(Br)cc1-c1cc(C)ncc1C(=O)Nc1nnc(O[C@H]2CCC[C@@H](O)C2)s1 (single isomer, unassigned) [Example 244]	≤ 200 nM
COc1cnc(Br)cc1-c1cc(C)ncc1C(=O)Nc1nnc(O[C@H]2CCC[C@H](O)C2)s1 [Example 271, 2′-bromo-N-(5-(((1S,3S)-3-hydroxycyclohexyl)oxy)-1,3,4-thiadiazol-2-yl)-5′-methoxy-6-methyl-[4,4′-bipyridine]-3-carboxamide]	≤ 200 nM
COc1cnc(Cl)cc1-c1cc(C)ncc1C(=O)Nc1nnc(OC2(C3CCOC3)CC2)s1 (centres unmarked) [Example 288, 2′-chloro-5′-methoxy-6-methyl-N-(5-(1-(tetrahydrofuran-3-yl)cyclopropoxy)-1,3,4-thiadiazol-2-yl)-[4,4′-bipyridine]-3-carboxamide]	≤ 200 nM
COc1cnc(Cl)c(F)c1-c1cc(C)ncc1C(=O)Nc1nnc(O[C@H]2CC[C@@H](CO)CC2)s1 [Example 245, 2′-chloro-3′-fluoro-N-(5-(((1s,4s)-4-(hydroxymethyl)cyclohexyl)oxy)-1,3,4-thiadiazol-2-yl)-5′-methoxy-6-methyl-[4,4′-bipyridine]-3-carboxamide]	≤ 200 nM
COc1cnc(Br)cc1-c1cc(C)ncc1C(=O)Nc1nnc(O[C@H]2CC[C@@H](CO)CC2)s1 [Example 268, 2′-bromo-N-(5-(((1s,4s)-4-(hydroxymethyl)cyclohexyl)oxy)-1,3,4-thiadiazol-2-yl)-5′-methoxy-6-methyl-[4,4′-bipyridine]-3-carboxamide]	≤ 200 nM

The remaining lines, values ahead:

IC50	Compound
≤ 200 nM	COc1nnc(NC(=O)c2cnc(C)cc2-c2cc(Cl)cc3c2OCCN3)s1 [Example 320, 4-(6-chloro-3,4-dihydro-2H-benzo[b][1,4]oxazin-8-yl)-N-(5-methoxy-1,3,4-thiadiazol-2-yl)-6-methylnicotinamide]
1000 to 10000 nM	COc1nnc(NC(=O)c2cnc(C)cc2-c2cccc(C(N)=O)c2)s1 [Example 488, 4-(3-carbamoylphenyl)-N-(5-methoxy-1,3,4-thiadiazol-2-yl)-6-methylnicotinamide]
≤ 200 nM	COc1cnc(Cl)cc1-c1cc(C)ncc1C(=O)Nc1nnc(O[C@@H]2CC[C@@]23CCOC3)s1 (racemic) [Example 295, rac-N-(5-(((1R,4S)-6-oxaspiro[3.4]octan-1-yl)oxy)-1,3,4-thiadiazol-2-yl)-2′-chloro-5′-methoxy-6-methyl-[4,4′-bipyridine]-3-carboxamide]
≤ 200 nM	COc1cnc(C)cc1-c1cc(C)ncc1C(=O)Nc1nnc(OC(CC(N)=O)C(F)(F)F)s1 (centres unmarked) [Example 324, N-(5-((4-amino-1,1,1-trifluoro-4-oxobutan-2-yl)oxy)-1,3,4-thiadiazol-2-yl)-5′-methoxy-2′,6-dimethyl-[4,4′-bipyridine]-3-carboxamide]
200 to 500 nM	COc1nnc(NC(=O)c2cnc(C)cc2-c2cc(C)nc(C)c2)s1 [Example 469, N-(5-methoxy-1,3,4-thiadiazol-2-yl)-2′,6,6′-trimethyl-[4,4′-bipyridine]-3-carboxamide]
1000 to 10000 nM	COc1nnc(NC(=O)c2cnc(C)cc2-c2ccc3c(c2)CNC3=O)s1 [Example 379, N-(5-methoxy-1,3,4-thiadiazol-2-yl)-6-methyl-4-(1-oxo-2,3-dihydro-1H-isoindol-5-yl)pyridine-3-carboxamide]
1000 to 10000 nM	COc1nnc(NC(=O)c2cnc(C)cc2-c2cnn(-c3ccccc3)c2)s1 [Example 460, N-(5-methoxy-1,3,4-thiadiazol-2-yl)-6-methyl-4-(1-phenyl-1H-pyrazol-4-yl)nicotinamide]
200 to 500 nM	COc1nnc(NC(=O)c2cnc(C)cc2-c2cccc3sccc23)s1 [Example 423, 4-(1-benzothiophen-4-yl)-N-(5-methoxy-1,3,4-thiadiazol-2-yl)-6-methylpyridine-3-carboxamide]
≤ 200 nM	COc1nnc(NC(=O)c2ccccc2-c2cc(Cl)ncc2OC)s1 [Example 291, 2-(2-chloro-5-methoxypyridin-4-yl)-N-(5-methoxy-1,3,4-thiadiazol-2-yl)benzamide]
≤ 200 nM	COc1nnc(NC(=O)c2ccc([N+](=O)[O-])cc2-c2cc(Cl)ncc2OC)s1 [Example 300, 2-(2-chloro-5-methoxypyridin-4-yl)-N-(5-methoxy-1,3,4-thiadiazol-2-yl)-4-nitrobenzamide]
500 to 1000 nM	COc1nnc(NC(=O)c2cnc(C)cc2-c2cccc(OC(F)(F)F)c2)s1 [Example 408, N-(5-methoxy-1,3,4-thiadiazol-2-yl)-6-methyl-4-[3-(trifluoromethoxy)phenyl]pyridine-3-carboxamide]
500 to 1000 nM	COc1nnc(NC(=O)c2cnc(C)cc2-c2cccc(F)c2C#N)s1 [Example 430, 4-(2-cyano-3-fluorophenyl)-N-(5-methoxy-1,3,4-thiadiazol-2-yl)-6-methylpyridine-3-carboxamide]
1000 to 10000 nM	COc1nnc(NC(=O)c2cnc(C)cc2-c2ccc3cn[nH]c3c2)s1 [Example 338, 4-(1H-indazol-6-yl)-N-(5-methoxy-1,3,4-thiadiazol-2-yl)-6-methylnicotinamide]
500 to 1000 nM	COc1nnc(NC(=O)c2cnc(C)cc2-c2cccc3[nH]ncc23)s1 [Example 335, 4-(1H-indazol-4-yl)-N-(5-methoxy-1,3,4-thiadiazol-2-yl)-6-methylnicotinamide]
1000 to 10000 nM	COc1nnc(NC(=O)c2cnc(C)cc2-c2cscc2C#N)s1 [Example 442, 4-(4-cyanothiophen-3-yl)-N-(5-methoxy-1,3,4-thiadiazol-2-yl)-6-methylpyridine-3-carboxamide]
1000 to 10000 nM	COc1nnc(NC(=O)c2cnc(C)cc2-c2cncc(F)c2)s1 [Example 471, 5-fluoro-N-(5-methoxy-1,3,4-thiadiazol-2-yl)-6′-methyl-[3,4′-bipyridine]-3′-carboxamide]

Same assay, conditions: Table 4; Pol theta (1-899) 5 nM, ATP, dT50 ssDNA

IC50	Compound
≤ 200 nM	COc1nnc(NC(=O)c2cnc(C)cc2-c2cc(Cl)ncc2OC)s1 [Example 5, 2′-chloro-5′-methoxy-N-(5-methoxy-1,3,4-thiadiazol-2-yl)-6-methyl-(4,4′-bipyridine)-3-carboxamide]
≤ 200 nM	COc1nnc(NC(=O)c2cnc(C)cc2-c2cc(C)ncc2OC(F)F)s1 [Example 52, 5′-(difluoromethoxy)-N-(5-methoxy-1,3,4-thiadiazol-2-yl)-2′,6-dimethyl-(4,4′-bipyridine)-3-carboxamide]
200 to 500 nM	COc1nnc(NC(=O)c2cnc(C)cc2-c2cc(C)nnc2OC)s1 [Example 43, N-(5-methoxy-1,3,4-thiadiazol-2-yl)-4-(3-methoxy-6-methylpyridazin-4-yl)-6-methylnicotinamide]
200 to 500 nM	COc1cnc(Cl)cc1-c1cc(C)ncc1C(=O)Nc1nnc(O)s1 [Example 31, 2′-chloro-N-(5-hydroxy-1,3,4-thiadiazol-2-yl)-5′-methoxy-6-methyl-(4,4′-bipyridine)-3-carboxamide]

Same assay, conditions: Table 5; Pol theta (1-899) 5 nM, ATP, dT50 ssDNA

IC50	Compound
≤ 200 nM	COc1cnc(Br)cc1-c1cc(C)ncc1C(=O)Nc1nnc(O[C@@H]2COC3(CC3)C2)s1 (single isomer, unassigned) [Example 226]
≤ 200 nM	COc1cnc(Cl)cc1-c1cc(C)ncc1C(=O)Nc1nnc(O[C@@H]2CO[C@@H](C)C2)s1 (single isomer, unassigned) [Example 190]
≤ 200 nM	COc1cnc(Cl)c(F)c1-c1cc(C)ncc1C(=O)Nc1nnc(O[C@H]2CC[C@@](C)(O)CC2)s1 (single isomer, unassigned) [Example 171, 2′-chloro-3′-fluoro-N-(5-(((1s,4s)-4-hydroxy-4-methylcyclohexyl)oxy)-1,3,4-thiadiazol-2-yl)-5′-methoxy-6-methyl-(4,4′-bipyridine)-3-carboxamide]
≤ 200 nM	COc1cnc(Cl)cc1-c1cc(C)ncc1C(=O)Nc1nnc(O[C@@H]2CCC[C@H](O)C2)s1 (single isomer, unassigned) [Example 160]
≤ 200 nM	COc1cnc(Cl)cc1-c1cc(C)ncc1C(=O)Nc1nnc(O[C@@H]2COC(C)(C)C2)s1 (single isomer, unassigned) [Example 130]
200 to 500 nM	COc1nnc(NC(=O)c2cnc(C)cc2-c2cc3cn[nH]c3cc2OC)s1 [Example 104, N-(5-methoxy-1,3,4-thiadiazol-2-yl)-4-(6-methoxy-1H-indazol-5-yl)-6-methylnicotinamide]
≤ 200 nM	COc1cnc(Cl)cc1-c1cc(C)ncc1C(=O)Nc1nnc(O[C@H]2CCC[C@H](OC)C2)s1 (single isomer, unassigned) [Example 147]
≤ 200 nM	COc1cnc(Cl)c(F)c1-c1cc(C)ncc1C(=O)Nc1nnc(O[C@H]2CCO[C@@H]2C)s1 (single isomer, unassigned) [Example 165]
≤ 200 nM	COc1cnc(Cl)cc1-c1cc(C)ncc1C(=O)Nc1nnc(O[C@H]2COC3(CC3)C2)s1 (single isomer, unassigned) [Example 117]
1000 to 10000 nM	COc1nnc(NC(=O)c2cnc(C)cc2-c2ccncc2OC)s1 [Example 101, 3′-methoxy-N-(5-methoxy-1,3,4-thiadiazol-2-yl)-6-methyl-(4,4′-bipyridine)-3-carboxamide]
≤ 200 nM	COc1cnc(Br)cc1-c1cc(C)ncc1C(=O)Nc1nnc(O[C@H]2CC[C@@](C)(O)CC2)s1 (single isomer, unassigned) [Example 222, 2′-bromo-N-(5-(((1s,4s)-4-hydroxy-4-methylcyclohexyl)oxy)-1,3,4-thiadiazol-2-yl)-5′-methoxy-6-methyl-(4,4′-bipyridine)-3-carboxamide]
